Data on 1 molecule can be found in patent publication US8221975B2, “Method for detection of microorganism” (Morinaga Milk Industry Co., Ltd., priority 2007, dated 2012).

The assay deals with Salmonella enteritidis IIP 604. Description: invA-PCR (378 bp) of EMA-treated Salmonella, band intensity of final amplified product. The settings on record: for bands of invA gene amplified products (electrophoresis, FIG. 4): multi-step treatment (EMA 10 μg/ml-incubation-EMA 10 μg/ml). In kind it is cell-based.

Consider `CC[n+]1c(-c2ccccc2)c2cc(N=[N+]=[N-])ccc2c2ccc(N)cc21` [EMA, ethidium monoazide], for which the “bands of invA gene amplified products (electrophoresis, FIG. 4)” value reads like this: (injured cells) “no band was detected”; (live cells) “bands were clearly detected”. The Band Intensity was determined as 0.000 (multi-step: EMA 10 μg/ml + Incubation (37° C., 2 hr) + EMA 10 μg/ml, Injured cell); 0.742 (multi-step: EMA 10 μg/ml + Incubation (37° C., 2 hr) + EMA 10 μg/ml, Live cell); 1.218 (single-step EMA 10 μg/ml, Injured cell); 2.856 (single-step EMA 10 μg/ml, Live cell).
